Read-outs that look alike come from different tables or passages of the source. *1 amine or outer side, *2 acyl side, *3 side chain or, on linkers, in order; H or OH if unused. Where a SMILES comes first, the peptide text is derived from it. The star is where a group is joined. X1 = O=C(CCCC[C@@H]1SC[C@@H]2NC(=O)N[C@@H]21)NCCCOCCOCCOCCCN*; Suc = O=C(CCC(=O)[*:2])[*:1]
Key:
[1] = target: SCRIB PDZ1; conditions: fragmentomic, isolated PDZ domain; cited from earlier work
Source text: Supplement sciadv.ade3828_table_s1.zip/sciadv.ade3828_table_s1.xlsx, sheet "nHU-WB_SP" | column: Domain-motif fragmentomic affinities (ProfAff)

[2] = target: endogenous full-length SCRIB (Homo sapiens, UniProt Q14160); assay: Single-point nHU-WB, 12 PBM peptide baits, Jurkat extract; type: binding
Sequence of endogenous full-length SCRIB (Q14160 whole entry): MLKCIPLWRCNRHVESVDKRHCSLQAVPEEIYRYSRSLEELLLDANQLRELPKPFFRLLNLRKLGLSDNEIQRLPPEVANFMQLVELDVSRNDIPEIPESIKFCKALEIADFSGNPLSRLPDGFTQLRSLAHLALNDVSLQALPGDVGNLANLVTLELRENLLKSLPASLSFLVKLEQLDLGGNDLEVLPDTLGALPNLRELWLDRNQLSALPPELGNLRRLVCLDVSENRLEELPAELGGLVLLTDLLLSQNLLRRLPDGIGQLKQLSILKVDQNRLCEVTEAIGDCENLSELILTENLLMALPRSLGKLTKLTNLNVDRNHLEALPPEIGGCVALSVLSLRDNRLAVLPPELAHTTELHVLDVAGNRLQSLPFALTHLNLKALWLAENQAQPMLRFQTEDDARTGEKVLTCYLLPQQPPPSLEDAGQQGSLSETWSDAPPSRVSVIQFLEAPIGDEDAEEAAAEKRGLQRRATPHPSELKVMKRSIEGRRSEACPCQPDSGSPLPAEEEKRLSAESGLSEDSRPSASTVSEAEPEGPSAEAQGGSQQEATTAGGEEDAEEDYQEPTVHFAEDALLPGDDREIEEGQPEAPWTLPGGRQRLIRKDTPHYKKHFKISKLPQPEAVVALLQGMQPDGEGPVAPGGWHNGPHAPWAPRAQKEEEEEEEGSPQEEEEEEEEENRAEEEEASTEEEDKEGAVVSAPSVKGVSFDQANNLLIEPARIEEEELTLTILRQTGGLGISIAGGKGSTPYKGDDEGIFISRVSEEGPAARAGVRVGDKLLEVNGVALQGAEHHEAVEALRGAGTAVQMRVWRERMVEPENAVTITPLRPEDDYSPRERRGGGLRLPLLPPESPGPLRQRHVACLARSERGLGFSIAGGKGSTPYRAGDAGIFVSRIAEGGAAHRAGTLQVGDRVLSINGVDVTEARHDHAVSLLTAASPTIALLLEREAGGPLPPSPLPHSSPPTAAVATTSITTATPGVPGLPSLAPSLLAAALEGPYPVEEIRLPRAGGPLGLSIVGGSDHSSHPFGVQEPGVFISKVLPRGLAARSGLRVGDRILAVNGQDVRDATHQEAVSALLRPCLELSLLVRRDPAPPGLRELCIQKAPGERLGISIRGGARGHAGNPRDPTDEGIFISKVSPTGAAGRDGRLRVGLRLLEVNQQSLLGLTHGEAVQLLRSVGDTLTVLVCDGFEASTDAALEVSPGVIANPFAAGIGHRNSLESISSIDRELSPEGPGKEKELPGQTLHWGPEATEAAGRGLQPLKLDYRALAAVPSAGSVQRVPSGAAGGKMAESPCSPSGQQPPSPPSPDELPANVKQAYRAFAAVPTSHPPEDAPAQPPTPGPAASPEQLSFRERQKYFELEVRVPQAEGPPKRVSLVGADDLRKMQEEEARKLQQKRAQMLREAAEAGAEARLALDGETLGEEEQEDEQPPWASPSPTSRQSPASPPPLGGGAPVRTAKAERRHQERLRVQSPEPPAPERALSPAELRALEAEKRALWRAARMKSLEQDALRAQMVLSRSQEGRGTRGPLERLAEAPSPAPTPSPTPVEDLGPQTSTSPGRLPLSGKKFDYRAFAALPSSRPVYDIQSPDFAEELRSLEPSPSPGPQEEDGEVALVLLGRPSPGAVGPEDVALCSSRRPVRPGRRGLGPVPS

[3] = target: T1, endogenous full-length SNX27 (Homo sapiens, UniProt Q96L92); assay: as above; type: binding
T1 construct: Supernatant fractions were probed with specific antibodies against endogenous full-length PDZ domain–containing proteins SCRIB and SNX27; endogenous in cells; host or cells: Jurkat E6.1 total cell extract

[4] = target: isolated PDZ domain of SNX27; conditions: 10-mer PBM peptide vs isolated PDZ domain, holdup; cited from earlier work
[5] = target: SCRIB PDZ2; conditions: fragmentomic, isolated PDZ domain; cited from earlier work
Source text: (§1) Supplement sciadv.ade3828_table_s1.zip/sciadv.ade3828_table_s1.xlsx, sheet "nHU-WB_SP"

[6] = target: SCRIB PDZ3; conditions: fragmentomic, isolated PDZ domain; cited from earlier work
Source text: as §1

| Kd ([2]; apparent, Eq. 2, ~10 μM bait, Jurkat extract, mean of replicates with a value, read-out: av.pKapp (converted)) | Kd ([3]; apparent, Eq. 2, ~10 μM bait, Jurkat extract, mean of n = 3, read-out: av.pKapp (converted)) | SMILES | pKd_PDZ1 [1] | Kd [2] | Kd [3] | pKd (fragmentomic affinity) [4] | pKd_PDZ2 [5] | pKd_PDZ3 [6] |
| --- | --- | --- | --- | --- | --- | --- | --- | --- |
| – | – | CC(C)C[C@H](NC(=O)[C@H](CC(N)=O)NC(=O)[C@@H](NC(=O)[C@H](CCC(=O)O)NC(=O)[C@H](CC(=O)O)NC(=O)[C@H](Cc1c[nH]c2ccccc12)NC(=O)[C@H](C)NC(=O)[C@@H]1CCCN1C(=O)[C@H](CC(=O)O)NC(=O)[C@H](CC(N)=O)NC(=O)CCC(=O)NCCCOCCOCCOCCCNC(=O)CCCC[C@@H]1SC[C@@H]2NC(=O)N[C@@H]21)[C@@H](C)O)C(=O)O [ARHGEF7] ({X1-Suc}-NDPAWDETNL-OH; C-terminus assumed) | 5.50 | 1.35 µM | 1.51 µM | 5.66 | 4.68 | 5.08 |
| – | – | CC(C)C[C@H](NC(=O)[C@H](CO)NC(=O)[C@@H](NC(=O)[C@H](CCC(=O)O)NC(=O)[C@H](CC(C)C)NC(=O)[C@H](CO)NC(=O)[C@H](Cc1c[nH]cn1)NC(=O)[C@H](CC(C)C)NC(=O)[C@@H]1CCCN1C(=O)[C@H](CO)NC(=O)CCC(=O)NCCCOCCOCCOCCCNC(=O)CCCC[C@@H]1SC[C@@H]2NC(=O)N[C@@H]21)[C@@H](C)O)C(=O)O [ATP2B1] ({X1-Suc}-SPLHSLETSL-OH; C-terminus assumed) | 5.36 | – | – | 5.48 | 4.27 | 5.54 |
| 1.17 µM | 1.51 µM | CC(C)[C@H](NC(=O)CN)C(=O)N[C@@H](CCC(=O)O)C(=O)NCC(=O)N[C@@H](CO)C(=O)N[C@@H](CC(=O)O)C(=O)N[C@H](C(=O)N[C@H](C(=O)N[C@@H](CCC(=O)O)C(=O)N[C@@H](C)C(=O)O)[C@@H](C)O)[C@@H](C)O [MAP4] (H-GVEGSDTTEA-OH) | – | – | – | – | – | – |
| – | – | CC(C)C[C@H](NC(=O)[C@H](CO)NC(=O)[C@@H](NC(=O)[C@H](CCC(=O)O)NC(=O)[C@H](CCC(=O)O)NC(=O)[C@H](CS)NC(=O)[C@@H](NC(=O)[C@H](CCCNC(=N)N)NC(=O)[C@@H](NC(=O)[C@@H]1CCCN1C(=O)CCC(=O)NCCCOCCOCCOCCCNC(=O)CCCC[C@@H]1SC[C@@H]2NC(=O)N[C@@H]21)C(C)C)C(C)C)[C@@H](C)O)C(=O)O [OTULIN] ({X1-Suc}-PVRVCEETSL-OH; C-terminus assumed) | 5.44 | – | – | 5.58 | 4.70 | 5.64 |
| – | – | CSCC[C@H](NC(=O)[C@@H](NC(=O)[C@H](CO)NC(=O)[C@H](CCC(=O)O)NC(=O)[C@H](CCCCN)NC(=O)[C@H](CCC(=O)O)NC(=O)[C@H](CO)NC(=O)[C@H](C)NC(=O)[C@@H](NC(=O)[C@@H](NC(=O)CCC(=O)NCCCOCCOCCOCCCNC(=O)CCCC[C@@H]1SC[C@@H]2NC(=O)N[C@@H]21)[C@@H](C)O)C(C)C)C(C)C)C(=O)O [SLC1A5] ({X1-Suc}-TVASEKESVM-OH; C-terminus assumed) | 5.20 | 112 µM | 8.91 µM | 5.29 | – | 3.97 |
| – | – | CC(C)C[C@H](NC(=O)[C@@H]1CCCN1C(=O)[C@H](Cc1c[nH]cn1)NC(=O)[C@H](Cc1ccccc1)NC(=O)CCC(=O)NCCCOCCOCCOCCCNC(=O)CCCC[C@@H]1SC[C@@H]2NC(=O)N[C@@H]21)C(=O)NCC(=O)N[C@@H](C)C(=O)N[C@@H](CC(=O)O)C(=O)N[C@@H](CO)C(=O)N[C@@H](CCC(N)=O)C(=O)N[C@H](C(=O)O)C(C)C [SLC2A1] ({X1-Suc}-FHPLGADSQV-OH; C-terminus assumed) | 4.02 | 69.2 µM | 25.1 µM | 4.05 | – | 3.58 |
| – | – | CC(C)[C@H](NC(=O)[C@@H]1CCCN1C(=O)[C@H](CO)NC(=O)[C@H](CCC(=O)O)NC(=O)[C@H](CCC(=O)O)NC(=O)[C@H](CCC(=O)O)NC(=O)[C@H](CCCCN)NC(=O)[C@@H]1CCCN1C(=O)CNC(=O)CNC(=O)CCC(=O)NCCCOCCOCCOCCCNC(=O)CCCC[C@@H]1SC[C@@H]2NC(=O)N[C@@H]21)C(=O)O [SLC16A1] ({X1-Suc}-GGPKEEESPV-OH; C-terminus assumed) | 5.18 | 69.2 µM | 6.17 µM | 5.27 | – | – |
